We go through 57 compounds from US8101550B2, “Anthranilic acid diamide derivative with hetero-aromatic and hetero-cyclic substituents” (Bayer Cropscience AG, priority 2006, dated 2012).

The nature of the first data set: log P determination by HPLC on reverse-phase column (EEC Directive 79/831 Annex V.A8). Format: physicochemical.
Settings: not given
The method, boiled down:
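Reverse-phase C18 HPLC at 43 °C, following EEC Directive 79/831 Annex V.A8. Acidic LC-MS used pH 2.7 eluents (0.1% aqueous formic acid and acetonitrile with 0.1% formic acid) on a 10–95% acetonitrile linear gradient. Log P was interpolated linearly from retention times against unbranched C3–C16 alkan-2-ones of known log P.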
By logP is commonly meant a log measure of how a compound divides between an organic and an aqueous phase. Low readings indicate lower lipophilicity, high ones higher lipophilicity. In turn, `N#CCNC(=O)c1cc(Cl)cc(Cl)c1NC(=O)c1cc(Cc2cncnc2)nn1-c1ncccc1Cl` [I-1-320] came in with a lipophilicity (logP) of 1.49. Take `Cc1cc(F)cc(C(=O)NC(C)C)c1NC(=O)c1cc(Cn2nc(C(F)(F)F)cc2C(F)(F)F)nn1-c1ncccc1Cl` [I-1-225]: the logP came out at 3.77. Compound `CSCC(C)NC(=O)c1cc(F)cc(C)c1NC(=O)c1cc(Cn2cc(Cl)c(C(F)(F)C(F)(F)F)n2)nn1-c1ncccc1Cl` (stereo not drawn) [I-1-195] returned a logP of 4.13. On to `Cc1cc(F)cc(C(=O)NC(C)C)c1NC(=O)c1cc(Cn2nc(C(F)(F)F)nc2C(F)(F)F)nn1-c1ncccc1Cl` [I-1-218], for which the lipophilicity (logP) was 3.55. Still for that read-out and setting: to `Cc1cc(I)cc(C(=O)NC2CCCCC2)c1NC(=O)c1cc(Cn2nc(C(F)(F)F)nc2C(F)(F)F)nn1-c1ncccc1Cl` [I-1-281] belongs 4.54; to `O=C(NC1CC1)c1cc(Cl)cc(Cl)c1NC(=O)c1cc(Cn2cnc(C(F)(F)C(F)(F)F)n2)nn1-c1ncccc1Cl` [I-1-344], 2.37; to `Cc1cc(Cl)cc(C(=O)NC(C)CS(C)(=O)=O)c1NC(=O)c1cc(Cn2cc(Cl)c(C(F)(F)C(F)(F)F)n2)nn1-c1ncccc1Cl` (stereo not drawn) [I-1-213], 3.60. On the same count and under the same terms, to `Cc1cc(C#N)cc(C(N)=O)c1NC(=O)c1cc(Cn2nc(C(F)(F)F)cc2C(F)(F)F)nn1-c1ncccc1Cl` [I-1-189] belongs 3.15. On the same count and under the same terms, with `CSC[C@H](C)NC(=O)c1cc(Cl)cc(C)c1NC(=O)c1cc(Cn2cnc(-c3ccc(Cl)nc3)n2)nn1-c1ncccc1Cl` [I-1-159] the figure was 3.78; with `Cc1cc(C#N)cc(C(=O)NC(C)C)c1NC(=O)c1cc(Cn2ccc(C(F)(F)F)n2)nn1-c1ncccc1Cl` [I-1-182], 2.96.

As to `Cc1cc(I)cc(C(=O)NCC(F)(F)F)c1NC(=O)c1cc(Cn2nc(C(F)(F)F)cc2C(F)(F)F)nn1-c1ncccc1Cl` [I-1-232], the lipophilicity (logP) is 5.28. Still for that read-out and setting: to `CNC(=O)c1cc(C#N)cc(C)c1NC(=O)c1cc(Cn2cnc(C(F)(F)C(F)(F)F)n2)nn1-c1ncccc1Cl` [I-1-333] belongs 2.25; to `CSc1ncn(Cc2cc(C(=O)Nc3c(C)cc(Cl)cc3C(=O)NC3CC3)n(-c3ncccc3Cl)n2)n1` [I-1-263], 2.13; to `Cc1cc(C#N)cc(C(=O)NCC#N)c1NC(=O)c1cc(Cn2cnc(C(F)(F)C(F)(F)F)n2)nn1-c1ncccc1Cl` [I-1-351], 1.96. Compound `Cc1cc(C#N)cc(C(=O)NC(C)C)c1NC(=O)c1cc(Cn2cc(Cl)c(C(F)(F)C(F)(F)F)n2)nn1-c1ncccc1Cl` [I-1-172] gave a logP of 3.87. On the same count and under the same terms, with `CNC(=O)c1cc(Cl)cc(C)c1NC(=O)c1cc(Cn2nnc(-c3cc(Cl)nc(Cl)c3)n2)nn1-c1ncccc1Cl` [I-1-155] the figure was 3.69. On the same count and under the same terms, to `NC(=O)c1cc(Cl)cc(Cl)c1NC(=O)c1cc(Cc2cncnc2)nn1-c1ncccc1Cl` [I-1-319] belongs 2.02. `Cc1cc(Cl)cc(C(=O)NC2CC2)c1NC(=O)c1cc(Cn2cnc(C(F)(F)C(F)(F)F)n2)nn1-c1ncccc1Cl` [I-1-331] gave a logP of 2.78. On the same count and under the same terms, to `Cc1cc(C#N)cc(C(=O)NC(C)C)c1NC(=O)c1cc(Cn2cnc(C(F)(F)C(F)(F)F)n2)nn1-c1ncccc1Cl` [I-1-354] belongs 2.23. Still for that read-out and setting: to `NC(=O)c1cc(Cl)cc(Cl)c1NC(=O)c1cc(Cn2cc(C(F)(F)C(F)(F)F)c(C(F)(F)C(F)(F)F)n2)nn1-c1ncccc1Cl` [I-1-296] belongs 3.43; to `CNC(=O)c1cc(Cl)cc(C)c1NC(=O)c1cc(Cn2nnnc2-c2ccc(C(F)(F)F)cc2)nn1-c1ncccc1Cl` [I-1-163], 3.15.

`CC(C)NC(=O)c1cc(Cl)cc(Cl)c1NC(=O)c1cc(Cn2ccc(C(F)(F)F)n2)nn1-c1ncccc1Cl` [I-1-314] displayed a logP of 2.77. On the same count and under the same terms, to `O=C(NC1CC1)c1cc(Cl)cc(Cl)c1NC(=O)c1cc(Cn2nc(C(F)(F)F)nc2C(F)(F)F)nn1-c1ncccc1Cl` [I-1-295] belongs 2.95; to `CNC(=O)c1cc(Cl)cc(C)c1NC(=O)c1cc(Cn2nnc(-c3ccccc3)n2)nn1-c1ncccc1Cl` [I-1-165], 3.09. For `Cc1cc(C#N)cc(C(N)=O)c1NC(=O)c1cc(Cn2cc(C(F)(F)C(F)(F)F)c(C(F)(F)C(F)(F)F)n2)nn1-c1ncccc1Cl` [I-1-192], the logP turned out to be 3.91. On the same count and under the same terms, to `CNC(=O)c1cc(Cl)cc(Cl)c1NC(=O)c1cc(Cc2cncnc2)nn1-c1ncccc1Cl` [I-1-321] belongs 1.41; to `N#CCNC(=O)c1cc(Cl)cc(Cl)c1NC(=O)c1cc(Cn2nc(C(F)(F)F)nc2C(F)(F)F)nn1-c1ncccc1Cl` [I-1-292], 2.83; to `Cc1cc(Cl)cc(C(=O)NC(C)C)c1NC(=O)c1cc(Cn2cnc(C(C)(C)C)n2)nn1-c1ncccc1Cl` [I-1-161], 2.87.

Take `CSC[C@H](C)NC(=O)c1cc(Cl)cc(C)c1NC(=O)c1cc(Cn2nnc(-c3ccc(Br)cc3)n2)nn1-c1ncccc1Cl` [I-1-152]: the logP was 4.41. The same measure, in the same setting: to `Cc1cc(I)cc(C(N)=O)c1NC(=O)c1cc(Cn2nc(C(F)(F)F)nc2C(F)(F)F)nn1-c1ncccc1Cl` [I-1-272] belongs 3.38; to `Cc1cc(I)cc(C(=O)NCC2CC2)c1NC(=O)c1cc(Cn2cc(Cl)c(C(F)(F)C(F)(F)F)n2)nn1-c1ncccc1Cl` [I-1-254], 4.47. The same measure, in the same setting: to `Cc1cc(Cl)cc(C(=O)NC(C)C)c1NC(=O)c1cc(Cn2nnc(-c3ccccc3)n2)nn1-c1ncccc1Cl` [I-1-166] belongs 3.60; to `CNC(=O)c1cc(Cl)cc(C)c1NC(=O)c1cc(Cn2cnc(C(F)(F)C(F)(F)F)n2)nn1-c1ncccc1Cl` [I-1-347], 2.19. Same read-out and setting: with `Cc1cc(C#N)cc(C(N)=O)c1NC(=O)c1cc(Cn2cc(Cl)c(C(F)(F)C(F)(F)F)n2)nn1-c1ncccc1Cl` [I-1-174] the figure was 3.20; with `Cc1cc(I)cc(C(=O)NC2CCCCCCCCCCC2)c1NC(=O)c1cc(Cn2nc(C(F)(F)F)nc2C(F)(F)F)nn1-c1ncccc1Cl` [I-1-280], 6.56; with `Cc1cc(I)cc(C(=O)NCC#N)c1NC(=O)c1cc(Cn2ccc(C(F)(F)F)n2)nn1-c1ncccc1Cl` [I-1-251], 3.04.

The same data set, now with this note: HPLC on reverse-phase column.
On to `Cc1cc(Cl)cc(C(=O)NC(C)C)c1NC(=O)c1cc(Cn2nc(C(F)(F)F)n(C)c2=O)nn1-c1ncccc1Cl` [I-1-117], for which the logP was found to be 2.85. Still for that read-out and setting: with `CNC(=O)c1cc(Cl)cc(C)c1NC(=O)c1cc(Cn2cc(Br)c(C(F)(F)F)n2)nn1-c1ncccc1Cl` [I-1-66] the figure was 3.38; with `CNC(=O)c1cc(Cl)cc(C)c1NC(=O)c1cc(Cn2nnn(-c3ccc(C(F)(F)F)cc3Cl)c2=O)nn1-c1ncccc1Cl` [I-1-109], 3.51; with `Cc1cc(Br)cc(C(=O)N[C@@H](C)CS(C)(=O)=O)c1NC(=O)c1cc(Cn2nc(C(F)(F)F)nc2C(F)(F)F)nn1-c1ncccc1Cl` [I-1-146], 3.36. On the same count and under the same terms, with `CNC(=O)c1cc(Cl)cc(C)c1NC(=O)c1cc(Cn2cnc(C(F)(F)F)c2)nn1-c1ncccc1Cl` [I-1-132] the figure was 2.39. Still for that read-out and setting: to `CNC(=O)c1cc(Cl)cc(C)c1NC(=O)c1cc(Cn2cc(C(F)(F)C(F)(F)F)cn2)nn1-c1ncccc1Cl` [I-1-64] belongs 3.21. `Cc1cc(Cl)cc(C(=O)N[C@@H](C)CS(C)(=O)=O)c1NC(=O)c1cc(Cn2cc(Br)c(C(F)(F)F)n2)nn1-c1ncccc1Cl` [I-1-141] yielded a logP of 3.26. `CNC(=O)c1cc(Cl)cc(C)c1NC(=O)c1cc(Cn2nc(C(F)(F)C(F)(F)F)nc2C(F)(F)F)nn1-c1ncccc1Cl` [I-1-86]: the log partition coefficient (logP) was found to be 3.78. The same measure, in the same setting: to `Cc1cc(Cl)cc(C(N)=O)c1NC(=O)c1cc(Cn2nc(C(F)(F)F)nc2C(F)(F)F)nn1-c1ncccc1Cl` [I-1-50] belongs 3.88.

Turning to `CNC(=O)c1cc(Br)cc(C)c1NC(=O)c1cc(Cn2ccc(C(F)(F)F)n2)nn1-c1ncccc1Cl` [I-1-80], the lipophilicity (logP) is given as 2.99.

Compound `Cc1cc(Cl)cc(C(=O)NC(C)C)c1NC(=O)c1cc(Cn2ccc(Cl)n2)nn1-c1ncccc1Cl` [I-1-103] returned a logP of 2.96. Same read-out and setting: with `Cc1cccc(C(=O)NC(C)C[S+](C)[O-])c1NC(=O)c1cc(Cn2nc(C(F)(F)F)nc2C(F)(F)F)nn1-c1ncccc1Cl` (stereo not drawn) [I-1-92] the figure was 2.65. Still for that read-out and setting: to `CNC(=O)c1cc(Cl)cc(C)c1NC(=O)c1cc(Cn2nc(C(F)(F)F)n(C)c2=O)nn1-c1ncccc1Cl` [I-1-116] belongs 2.44. Still for that read-out and setting: with `Cc1cc(Br)cc(C(=O)NC(C)C)c1NC(=O)c1cc(Cn2cc(Br)c(C(F)(F)F)n2)nn1-c1ncccc1Cl` [I-1-69] the figure was 3.92; with `Cc1cc(Cl)cc(C(=O)NC(C)C)c1NC(=O)c1cc(Cn2cnc(C(F)(F)F)c2)nn1-c1ncccc1Cl` [I-1-133], 2.77. Compound `Cc1cc(Br)cc(C(N)=O)c1NC(=O)c1cc(Cn2cc(Cl)c(C(F)(F)C(F)(F)F)n2)nn1-c1ncccc1Cl` [I-1-74] yielded a logP of 3.68.

`Cc1cc(Cl)cc(C(=O)N[C@@H](C)C[S+](C)[O-])c1NC(=O)c1cc(Cn2nc(C(F)(F)F)nc2C(F)(F)F)nn1-c1ncccc1Cl` (stereo partly drawn) [I-1-147] showed a logP of 2.95. `Cc1cc(Cl)cc(C(=O)NC(C)(C)CS(C)(=O)=O)c1NC(=O)c1cc(Cn2cc(Br)c(C(F)(F)F)n2)nn1-c1ncccc1Cl` [I-1-145] displayed a logP of 3.56.

The same data set, now with this note: HPLC, reverse-phase column (C 18), 43° C., acidic range pH 2.7.
Consider `Cc1cc(Cl)cc(C(=O)NCC#N)c1NC(=O)c1cc(Cn2nc(C(F)(F)F)cc2C(F)(F)F)nn1-c1ncc(C(F)(F)F)cc1Cl` [I-2-18], for which the lipophilicity (logP) was 4.23. The compound `Cc1cc(F)cc(C(=O)NC(C)C)c1NC(=O)c1cc(Cn2nc(C(F)(F)F)cc2C(F)(F)F)nn1-c1ncc(C(F)(F)F)cc1Cl` [I-2-20] yielded a log partition coefficient (logP) of 4.47.

The same data set, now with this note: reverse-phase C18 HPLC column; HPLC, reverse-phase column (C 18), 43° C., acidic range pH 2.7; read-out: logP.
Consider `COC(=O)c1cc(Cn2nc(C(F)(F)F)cc2C(F)(F)F)nn1-c1ncccc1Cl` [Example 4, Methyl 5-(3,5-bistrifluoromethylpyrazol-1-ylmethyl)-2-(3-chloropyridin-2-yl)-2H-pyrazole-3-carboxylate], for which the chromatographic logP was 3.71.
